Measured values from ChEMBL document CHEMBL1255173, “Dihydro-resveratrol--a potent dietary polyphenol” (Bioorg Med Chem Lett, 2010).
Activity calls are given as the source filed them. No cut-off for these calls is given here.

Key:
Assay type in all cases: functional, cell-based
[1] = system: K562; test: Cytotoxicity against human K562 cells after 48 hrs by MTT assay; settings: K562, 48 h
[2] = system: BT-474; test: Cytotoxicity against human BT474 cells after 48 hrs by MTT assay
[3] = system: MDA-MB-231; test: Cytotoxicity against human MDA-MB-231 cells after 48 hrs by MTT assay
[4] = system: MCF7; test: Cytotoxicity against human MCF7 cells after 48 hrs by MTT assay; settings: MCF7, 48 h

SMILES	IC50 [1]	Activity [2]	Activity [3]	IC50 [4]
Oc1ccc(CCc2cc(O)cc(O)c2)cc1 [DIHYDRORESVERATROL]	< 1000 nM	inactive	inactive	
O=c1c(-c2ccc(O)cc2)coc2cc(O)cc(O)c12 [GENISTEIN]				1000 nM
